Measurements: patent US20040184993A1, “Pharmaceutical aerosol composition containing HFA 227 and HFA 134a” (Chiesi Farmaceutici S.p.A., priority 1998, published 2004)
“And” between values parts separate entries of the source, which are not always exact repeats. Equal entries are not always repeated. Where two headings read alike, the source gives them in different places.

Legend:
[1] = Aerodynamic particle size distribution of pMDI solution formulations by Andersen Cascade Impactor (MMAD, GSD, fine particle dose); format: physicochemical; details: for FPD3 < 4.7 μm*: ethanol 15%, normalized for 250 nominal dose
Method: The aerodynamic particle size distribution of each formulation was characterized using a Multistage Cascade Impactor according to the procedure described in the European Pharmacopoeia 2nd edition, 1995, part V.5.9.1. pages 15-17. In this specific case an Andersen Cascade Impactor (ACI) was used. Results represented were obtained from ten cumulative actuations of a formulation. Deposition of the drug on each ACI plate was determined by high pressure liquid chromatography. The mass median aerodynamic diameter (MMAD) and geometric standard deviation (GSD) were calculated from plots of the cumulative percentage undersize of drug collected on each ACI plate (probit scale), against the upper cut off diameter for each respective ACI plate (log10 scale). The fine particle dose of each formulation was determined from the mass of drug collected on Stages 3 through to Filter (<4.7 μm) divided by the number of actuations per experiment.

[2] = BDP as a solution in HFA 134a (formulations of EP 0553298), reported in literature; cited from earlier work
[3] = BDP 50 μg/shot, ethanol 13%, glycerol 1.3%, HFA 134a, chamber volume 25 μl, actuator orifice 0.25 mm
[4] = BDP 50 μg/shot, ethanol 13%, glycerol 1.3%, HFA 134a, chamber volume 25 μl, actuator orifice 0.30 mm
[5] = BDP 50 μg/shot, ethanol 13%, glycerol 1.3%, HFA 134a, chamber volume 50 μl, actuator orifice 0.30 mm
[6] = BDP 50 μg/shot, ethanol 13%, glycerol 1.3%, HFA 134a, chamber volume 100 μl, actuator orifice 0.30 mm
[7] = BDP 50 μg/shot, ethanol 13%, glycerol 1.3%, HFA 227, chamber volume 25 μl, actuator orifice 0.30 mm
[8] = BDP 50 μg/shot, ethanol 13%, glycerol 1.3%, HFA 227, chamber volume 50 μl, actuator orifice 0.30 mm
[9] = BDP 50 μg/shot, ethanol 13%, glycerol 1.3%, HFA 227, chamber volume 100 μl, actuator orifice 0.30 mm
[10] = BDP 250 μg/shot, ethanol 15% (w/w), glycerol 1.3% (w/w), actuator 0.30 mm, HFA 227/HFA 134a 0:100
[11] = BDP 250 μg/shot, ethanol 15% (w/w), glycerol 1.3% (w/w), actuator 0.30 mm, HFA 227/HFA 134a 25:75
[12] = BDP 250 μg/shot, ethanol 15% (w/w), glycerol 1.3% (w/w), actuator 0.30 mm, HFA 227/HFA 134a 50:50
[13] = BDP 250 μg/shot, ethanol 15% (w/w), glycerol 1.3% (w/w), actuator 0.30 mm, HFA 227/HFA 134a 75:25
[14] = BDP 250 μg/shot, ethanol 15% (w/w), glycerol 1.3% (w/w), actuator 0.30 mm, HFA 227/HFA 134a 100:0

- FPD < 4.7 μm [1, 3]: 26.0 µg
- GSD [1, 3]: 1.9
- MMAD [1, 3]: 2.8 μm
- Metered Dose [1, 3]: 55 µg
- FPD < 4.7 μm [1, 4]: 19.2 µg
- GSD [1, 4]: 2.0
- MMAD [1, 4]: 2.6 μm
- Metered Dose [1, 4]: 57 µg
- FPD < 4.7 μm [1, 5]: 13.9 µg
- GSD [1, 5]: 2.1
- MMAD [1, 5]: 2.8 μm
- Metered Dose [1, 5]: 49 µg
- FPD < 4.7 μm [1, 6]: 11.7 µg
- GSD [1, 6]: 2.2
- MMAD [1, 6]: 2.7 μm
- Metered Dose [1, 6]: 51 µg
- FPD < 4.7 μm [1, 7]: 16.4 µg
- GSD [1, 7]: 2.1
- MMAD [1, 7]: 3.6 μm
- Metered Dose [1, 7]: 58 µg
- FPD < 4.7 μm [1, 8]: 13.1 µg
- GSD [1, 8]: 2.2
- MMAD [1, 8]: 3.5 μm
- Metered Dose [1, 8]: 51 µg
- FPD < 4.7 μm [1, 9]: 12.6 µg
- GSD [1, 9]: 2.2
- MMAD [1, 9]: 3.5 μm
- Metered Dose [1, 9]: 49 µg
- FPD [1, 10]: 27, 27%
- MMAD [1, 10]: 2.8, 2.8 μm
- FPD [1, 11]: 27% and 28%
- MMAD [1, 11]: 3.3 μm and 3.2 μm
- FPD [1, 12]: 25, 25%
- MMAD [1, 12]: 3.4 μm and 3.7 μm
- FPD [1, 13]: 25, 25%
- MMAD [1, 13]: 3.7, 3.7 μm
- FPD [1, 14]: 20% and 24%
- MMAD [1, 14]: 4.2 μm and 3.9 μm and 3.8 μm
- FPD3 < 4.7 μm* ([1]; BDP 250 μg/shot, glycerol 1.3%, actuator 0.30 mm, HFA 227/HFA 134a 0:100): 58 µg and 59 µg
- FPD3 < 4.7 μm* ([1]; BDP 250 μg/shot, glycerol 1.3%, actuator 0.30 mm, HFA 227/HFA 134a 25:75): 60 µg and 62 µg
- FPD3 < 4.7 μm* ([1]; BDP 250 μg/shot, glycerol 1.3%, actuator 0.30 mm, HFA 227/HFA 134a 50:50): 56, 56 μg
- FPD3 < 4.7 μm* ([1]; BDP 250 μg/shot, glycerol 1.3%, actuator 0.30 mm, HFA 227/HFA 134a 75:25): 56 µg and 57 µg
- FPD3 < 4.7 μm* ([1]; BDP 250 μg/shot, glycerol 1.3%, actuator 0.30 mm, HFA 227/HFA 134a 100:0): 47 µg and 45 µg and 50 µg
Compound: CCC(=O)OCC(=O)[C@@]1(OC(=O)CC)[C@@H](C)C[C@H]2[C@@H]3CCC4=CC(=O)C=C[C@]4(C)[C@@]3(Cl)[C@@H](O)C[C@@]21C [BDP, beclomethasone 17,21 dipropionate]
- MMAD [2]: 1.1 μm
